Experimental data taken from patent US20240190891A1, “PYRIDO OXAZINE AMINO DERIVATIVES AS ALK5 INHIBITORS” (CHIESI FARMACEUTICI S.P.A., priority 2020, published 2024).

Each compound was assayed against T1, human ALK5 (Homo sapiens, UniProt P36897) (assay: ADP-GLO Kinases assay, inhibitory activity on ALK5). Details: Table 10; purified recombinant human ALK5 2.6 nM, ADP-Glo, 25° C., 150 min incubation.
T1 construct: human ALK5 (recombinant TGF β1 N-term GST-tagged, 80-end); GST (N); purchased
T1 sequence (P36897 80-503 limits assumed): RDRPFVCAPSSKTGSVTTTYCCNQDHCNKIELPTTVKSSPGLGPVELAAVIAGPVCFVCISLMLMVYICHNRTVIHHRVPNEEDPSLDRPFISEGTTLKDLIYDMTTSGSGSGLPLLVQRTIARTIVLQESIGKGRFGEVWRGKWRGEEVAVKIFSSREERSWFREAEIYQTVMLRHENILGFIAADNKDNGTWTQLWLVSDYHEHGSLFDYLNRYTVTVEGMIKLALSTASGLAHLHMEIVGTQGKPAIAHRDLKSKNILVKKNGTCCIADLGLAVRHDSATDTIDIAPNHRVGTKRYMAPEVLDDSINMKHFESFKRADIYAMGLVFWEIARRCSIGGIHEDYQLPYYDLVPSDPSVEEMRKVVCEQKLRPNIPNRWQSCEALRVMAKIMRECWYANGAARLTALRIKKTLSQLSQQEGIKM
Type: biochemical
Experimental: The enzymatic activity of compounds of the present invention was monitored measuring the formation of ADP using the ADP-GLO Kinases assay. Following the incubation of the purified enzyme, a substrate and ATP, the produced ADP was converted into ATP, which in turn was converted into light by Ultra-Glo Luciferase. The luminescent signal positively correlated with ADP amount and kinase activity. Briefly, the kinase reaction was performed by incubating 2.6 nM of the purified, commercially available human ALK5 (recombinant TGF β1 N-term GST-tagged, 80-end), a final concentration of TGFβ1 peptide 94.5 μM (Promega, T36-58) and ultra-pure ATP (Promega V915B). The ATP concentration was set at the Km value (concentration of substrate which permits the enzyme to achieve half maximal velocity (Vmax)) of ALK5 (5 μM). All reactions/incubations were performed at 25° C. Compound and ALK5 kinase were mixed and incubated for 15 mins. Reactions were initiated by addition of ATP at a final concentration in the assay of 0.83 μM. After an incubation of 150 min, the reaction was stopped, and ADP production detected with ADP-Glo kit according to manufacturer's indications. The assay was performed in 384-well format and was validated using a selection of reference compounds that was tested in 11 point concentration-response curve.
Compounds of the examples C1, C2 and C3 were tested in the same in vitro assay described above.

SMILES	IC50
O=C(NCCN1CCNCC1)c1cnccc1Nc1cc(-c2cc(Cl)ccc2F)nc2c1OCCN2 [Example 12, 4-{[6-(5-chloro-2-fluorophenyl)-2H,3H,4H-pyrido[3,2-b][1,4]oxazin-8-yl]amino}-N-[2-(piperazin-1-yl)ethyl]pyridine-3-carboxamide]	< 1 nM
Nc1cnccc1Nc1cc(-c2cc(Cl)ccc2F)nc2c1OCCN2 [Example 7, N4-[6-(5-chloro-2-fluorophenyl)-2H,3H,4H-pyrido[3,2-b][1,4]oxazin-8-yl]pyridine-3,4-diamine]	1 to 5 nM
Cc1cccc(-c2cc(Nc3ccncc3C(=O)NC3CCN(C)CC3)c3c(n2)NCCO3)n1 [Example 42, N-(1-methylpiperidin-4-yl)-4-{[6-(6-methylpyridin-2-yl)-2H,3H,4H-pyrido[3,2-b][1,4]oxazin-8-yl]amino}pyridine-3-carboxamide]	1 to 5 nM
Cc1cccc(-c2cc(Nc3ccnc4[nH]ncc34)c3c(n2)NCCO3)n1 [Example 41, 6-(6-methylpyridin-2-yl)-N-{1H-pyrazolo[3,4-b]pyridin-4-yl}-2H,3H,4H-pyrido[3,2-b][1,4]oxazin-8-amine]	< 1 nM
CN1CCN(CCC(=O)Nc2cc(Nc3cc(-c4cc(Cl)ccc4F)nc4c3OCCN4)ccn2)CC1 [Example 33, N-(4-{[6-(5-chloro-2-fluorophenyl)-2H,3H,4H-pyrido[3,2-b][1,4]oxazin-8-yl]amino}pyridin-2-yl)-3-(4-methylpiperazin-1-yl)propanamide]	< 1 nM
COC(=O)c1cnccc1Nc1cc(-c2cccc(C)n2)nc2c1OCCN2 [Example 30, methyl 4-{[6-(6-methylpyridin-2-yl)-2H,3H,4H-pyrido[3,2-b][1,4]oxazin-8-yl]amino}pyridine-3-carboxylate]	< 1 nM
CN(C)CCC(=O)Nc1cnccc1Nc1cc(-c2cc(Cl)ccc2F)nc2c1OCCN2 [Example 39, N-(4-{[6-(5-chloro-2-fluorophenyl)-2H,3H,4H-pyrido[3,2-b][1,4]oxazin-8-yl]amino}pyridin-3-yl)-3-(dimethylamino)propanamide]	5 to 10 nM
O=C(NCCN(CCO)CCO)c1cnccc1Nc1cc(-c2cc(Cl)ccc2F)nc2c1OCCN2 [Example 37, N-{2-[bis(2-hydroxyethyl)amino]ethyl}-4-{[6-(5-chloro-2-fluorophenyl)-2H,3H,4H-pyrido[3,2-b][1,4]oxazin-8-yl]amino}pyridine-3-carboxamide]	< 1 nM
Clc1cccc(-c2cc(Nc3ccncc3)c3c(n2)NCCO3)n1 [Example 13, N-[6-(6-chloropyridin-2-yl)-2H,3H,4H-pyrido[3,2-b][1,4]oxazin-8-yl]pyridin-4-amine]	1 to 5 nM
Fc1ccc(Cl)cc1-c1cc(Nc2ccnc3[nH]ncc23)c2c(n1)NCCO2 [Example 25, 6-(5-chloro-2-fluorophenyl)-N-{1H-pyrazolo[3,4-b]pyridin-4-yl}-2H,3H,4H-pyrido[3,2-b][1,4]oxazin-8-amine]	< 1 nM
CN(C)CCOC(=O)c1cnccc1Nc1cc(-c2cc(Cl)ccc2F)nc2c1OCCN2 [Example 27, 2-(dimethylamino)ethyl 4-{[6-(5-chloro-2-fluorophenyl)-2H,3H,4H-pyrido[3,2-b][1,4]oxazin-8-yl]amino}pyridine-3-carboxylate]	1 to 5 nM
CN1CCN(CCNC(=O)c2cnccc2Nc2cc(-c3cc(Cl)ccc3F)nc3c2OCCN3)CC1 [Example 28, 4-{[6-(5-chloro-2-fluorophenyl)-2H,3H,4H-pyrido[3,2-b][1,4]oxazin-8-yl]amino}-N-[2-(4-methylpiperazin-1-yl)ethyl]pyridine-3-carboxamide]	1 to 5 nM
Cc1cccc(-c2cc(Nc3ccncc3)c3c(n2)NCCO3)c1 [Example 18, N-[6-(3-methylphenyl)-2H,3H,4H-pyrido[3,2-b][1,4]oxazin-8-yl]pyridin-4-amine]	1 to 5 nM
CS(=O)(=O)N1CCN(CCNC(=O)c2cnccc2Nc2cc(-c3cc(Cl)ccc3F)nc3c2OCCN3)CC1 [Example 46, 4-{[6-(5-chloro-2-fluorophenyl)-2H,3H,4H-pyrido[3,2-b][1,4]oxazin-8-yl]amino}-N-[2-(4-methanesulfonylpiperazin-1-yl)ethyl]pyridine-3-carboxamide]	1 to 5 nM
Cc1cccc(-c2cc(Nc3ccncc3)c3c(n2)NCCO3)n1 [Example 5, N-[6-(6-methylpyridin-2-yl)-2H,3H,4H-pyrido[3,2-b][1,4]oxazin-8-yl]pyridin-4-amine]	5 to 10 nM
Cc1csc(-c2cc(Nc3ccncc3)c3c(n2)NCCO3)n1 [Example 4, N-[6-(4-methyl-1,3-thiazol-2-yl)-2H,3H,4H-pyrido[3,2-b][1,4]oxazin-8-yl]pyridin-4-amine]	5 to 10 nM
Cc1ccc(F)c(-c2cc(Nc3ccncc3)c3c(n2)NCCO3)c1 [Example 8, N-[6-(2-fluoro-5-methylphenyl)-2H,3H,4H-pyrido[3,2-b][1,4]oxazin-8-yl]pyridin-4-amine]	< 1 nM

Other lines, results leading:

IC50	SMILES
< 1 nM	O=C(NC1CCNCC1)c1cnccc1Nc1cc(-c2cc(Cl)ccc2F)nc2c1OCCN2 [Example 24, 4-{[6-(5-chloro-2-fluorophenyl)-2H,3H,4H-pyrido[3,2-b][1,4]oxazin-8-yl]amino}-N-(piperidin-4-yl)pyridine-3-carboxamide]
< 1 nM	CN(C)CCC(=O)Nc1cc(Nc2cc(-c3cc(Cl)ccc3F)nc3c2OCCN3)ccn1 [Example 34, N-(4-{[6-(5-chloro-2-fluorophenyl)-2H,3H,4H-pyrido[3,2-b][1,4]oxazin-8-yl]amino}pyridin-2-yl)-3-(dimethylamino)propanamide]
1 to 5 nM	CN(CCNC(=O)c1cnccc1Nc1cc(-c2cc(Cl)ccc2F)nc2c1OCCN2)C1COC1 [Example 43, 4-{[6-(5-chloro-2-fluorophenyl)-2H,3H,4H-pyrido[3,2-b][1,4]oxazin-8-yl]amino}-N-{2-[methyl(oxetan-3-yl)amino]ethyl}pyridine-3-carboxamide]
1 to 5 nM	O=C(NCCN1CCOCC1)c1cnccc1Nc1cc(-c2cc(Cl)ccc2F)nc2c1OCCN2 [Example 9, 4-{[6-(5-chloro-2-fluorophenyl)-2H,3H,4H-pyrido[3,2-b][1,4]oxazin-8-yl]amino}-N-[2-(morpholin-4-yl)ethyl]pyridine-3-carboxamide]
< 1 nM	O=C(CCN1CCOCC1)Nc1cc(Nc2cc(-c3cc(Cl)ccc3F)nc3c2OCCN3)ccn1 [Example 20, N-(4-{[6-(5-chloro-2-fluorophenyl)-2H,3H,4H-pyrido[3,2-b][1,4]oxazin-8-yl]amino}pyridin-2-yl)-3-(morpholin-4-yl)propanamide]
< 1 nM	Fc1ccc(Cl)cc1-c1cc(Nc2ccncc2)c2c(n1)NCCO2 [Example 1, N-[6-(5-chloro-2-fluorophenyl)-2H,3H,4H-pyrido[3,2-b][1,4]oxazin-8-yl]-pyridine-4-amine]
< 1 nM	Fc1ccc(Cl)cc1-c1cc(Nc2ccnc3[nH]ccc23)c2c(n1)NCCO2 [Example 31, 6-(5-chloro-2-fluorophenyl)-N-{1H-pyrrolo[2,3-b]pyridin-4-yl}-2H,3H,4H-pyrido[3,2-b][1,4]oxazin-8-amine]
1 to 5 nM	Fc1ccccc1-c1cc(Nc2ccncc2)c2c(n1)NCCO2 [Example 11, N-[6-(2-fluorophenyl)-2H,3H,4H-pyrido[3,2-b][1,4]oxazin-8-yl]pyridin-4-amine]
